Take `CCCCC1=NC2(CCCC2)C(=O)N1Cc1ccc(C(=O)c2ccc(OC(C)(C)C(=O)O)cc2)cc1` [Compound 9, 2-butyl-1-[[4-[(4-((1-carboxyl-1,1-dimethylmethyl)oxy)phenyl)carbonyl]phenyl]methyl]-4-spirocyclopentyl-1H-imidazol-5(4H)-one]: the melting point – broadly, the temperature, or range, at which the solid turns liquid – is 90 to 99 °C.

Consider `CCCCC1=NC2(CCCCC2)C(=O)N1Cc1ccc(-c2cccc(OC(CC)C(=O)O)c2)cc1` (stereo not shown) [Compound 54, 2-butyl-1-[(3′-((1-carboxy-1-ethylmethyl)oxy)biphenyl-4-yl)methyl]-4-spirocyclohexyl-1H-imidazol-5(4H)-one], for which the melting point came out at 170 °C.

Compound `CCCCC1=NC2(CCCC2)C(=O)N1Cc1ccc(-c2cc(OC(C)(C)C(=O)O)ccc2CCC)cc1` [Compound 76, 2-butyl-1-[(3′-((1-carboxy-1,1-dimethylmethyl)oxy)-6′-propyl-biphenyl-4-yl)methyl]-4-spirocyclopentyl-1H-imidazol-5(4H)-one] displayed a melting point of under 60 °C.

The compound `CCCCC1=NC2(CCCCC2)C(=O)N1Cc1ccc(-c2cc(OC(C(=O)O)C(C)C)ccc2F)cc1` (stereo not shown) [Compound 59, 2-butyl-1-[(3′-((1-carboxy-1-(1,1-dimethylmethyl)-methyl)oxy)-6′-fluoro-biphenyl-4-yl)methyl]-4-spirocyclohexyl-1H-imidazol-5(4H)-one] yielded a melting point of 95 °C.

`CCCCC1=NC(c2ccccc2)C(=O)N1Cc1ccc(C(=O)c2ccc(OC(C)(C)C(=O)O)cc2)cc1` (stereo not shown) [Compound 20, 2-butyl-1-[[4-[(4-((1-carboxy-1,1-dimethylmethyl)oxy)phenyl)carbonyl]phenyl]methyl]-4-phenyl-1H-imidazol-5(4H)-one]: the melting point is 215 to 217 °C.

On to `CCCCC1=NC2(CCCC2)C(=O)N1Cc1ccc(-c2cccc(OC(C)(C)C(=O)O)c2F)cc1` [Compound 78, 2-butyl-1-[(3′-((1-carboxy-1,1-dimethylmethyl)oxy)-2′-fluoro-biphenyl-4-yl)methyl]-4-spirocyclopentyl-1H-imidazol-5(4H)-one], for which the melting point was 162 °C.

In turn, `CCCCC1=NC2(CCCC2)C(=O)N1Cc1ccc(-c2cc(OCC(=O)O)ccc2CCC)cc1` [Compound 84, 2-butyl-1-[(3′-((1-carboxymethyl)oxy)-6′-propyl-biphenyl-4-yl)methyl]-4-spirocyclopentyl-1H-imidazol-5(4H)-one] yielded a melting point of 76 °C.

As for `CC1=NC2(CCCC2)C(=O)N1Cc1ccc(-c2cccc(OC(C)(C)C(=O)O)c2)cc1` [Compound 18, 1-[(3′-((1-carboxy-1,1-dimethylmethyl)oxy)biphenyl-4-yl)methyl]-2-methyl-4-spirocyclopentyl-1H-imidazol-5(4H)-one], the melting point was in the range of 81 to 88 °C.

`CC(C)CC1=NC2(CCCC2)C(=O)N1Cc1ccc(-c2cccc(OC(C)(C)C(=O)O)c2)cc1` [Compound 27, 1-[(3′-((1-carboxy-1,1-dimethylmethyl)oxy)biphenyl-4-yl)methyl]-2-(2-methyl)propyl-4-spirocyclopentyl-1H-imidazol-5(4H)-one] displayed a melting point of 213 to 216 °C.

Regarding `CCCCC1=NC(c2ccccc2)C(=O)N1Cc1ccc(C(=O)c2cccc(OC(C)(C)C(=O)O)c2)cc1` (stereo not shown) [Compound 15, 2-butyl-1-[[4-[(3-((1-carboxy-1,1-dimethylmethyl)oxy)phenyl)carbonyl]phenyl]methyl]-4-phenyl-1H-imidazol-5(4H)-one], the melting point fell in the range of 115 to 120 °C.

`CCCCC1=NC(CC)(CC)C(=O)N1Cc1ccc(-c2cc(OC(C)(C)C(=O)O)ccc2F)cc1` [Compound 69] returned a melting point of 62 °C.

Compound `CCCCC1=NC2(CCCCC2)C(=O)N1Cc1ccc(C(=O)c2cccc(OC(C)(C)C(=O)O)c2)cc1` [Compound 11, 2-butyl-1-[[4-[(3-((1-carboxyl-1,1-dimethylmethyl)oxy)phenyl)carbonyl]phenyl]methyl]-4-spirocyclohexyl-1H-imidazol-5(4H)-one] came in with a melting point of 68 to 75 °C.

`CCCCC1=NC2(CCCCC2)C(=O)N1Cc1ccc(-c2cc(OC(C)(C)C(=O)O)ccc2F)cc1` [Compound 60, 2-butyl-1-[(3′-((1-carboxy-1,1-dimethylmethyl)oxy)-6′-fluoro-biphenyl-4-yl)methyl]-4-spirocyclohexyl-1H-imidazol-5(4H)-one]: the melting point amounted to 72 °C.

For the compound `CCCCC1=NC(CC)(CC)C(=O)N1Cc1ccc(-c2cccc(OC(C)(C)C(=O)O)c2)cc1` [Compound 65, 2-butyl-1-[(3′-((1-carboxy-1,1-dimethylmethyl)oxy)biphenyl-4-yl)methyl]-4,4-diethyl-1H-imidazol-5(4H)one], the melting point came out at 144 °C.

Compound `CCCCC1=NC2(CCCCC2)C(=O)N1Cc1ccc(-c2cc(OCC(=O)O)ccc2F)cc1` [Compound 56, 2-butyl-1-[(3′-((1-carbonylmethyl)oxy)-6′-fluoro-biphenyl-4-yl)methyl]-4-spirocyclohexyl-1H-imidazol-5(4H)-one] had a melting point of 102 to 105 °C.

`CCCCC1=NC2(CCCC2)C(=O)N1Cc1ccc(-c2cccc(OCC#N)c2)cc1` [Compound 23, 2-butyl-1-[(3′-(cyanomethoxy)biphenyl-4-yl)methyl]-4-spirocyclopentyl-1H-imidazol-5(4H)-one] came in with a melting point of 128 to 130 °C.

For `CCCCC1=NC2(CCCC2)C(=O)N1Cc1ccc(-c2cc(OC(C)(C)C(=O)O)ccc2Br)cc1` [Compound 12, 1-[(6′-bromo-3′-((1-carboxy-1,1-dimethylmethyl)oxy)biphenyl-4-yl)methyl]-2-butyl-4-spirocyclopentyl-1H-imidazol-5(4H)-one], the melting point lay within 174 to 176 °C.

`CCCCC1=NC2(CCCC2)C(=O)N1Cc1ccc(-c2ccc([N+](=O)[O-])c(OC(C)(C)C(=O)O)c2)cc1` [Compound 95, 2-butyl-1-[(3′-((1-carboxy-1,1-dimethylmethyl)oxy)-4′-nitro-biphenyl-4-yl)methyl]-4-spirocyclopentyl-1H-imidazol-5(4H)-one] came in with a melting point of under 50 °C.

With `CCCCC1=NC(c2ccccc2)C(=O)N1Cc1ccc(-c2cc(Br)ccc2OC(C)(C)C(=O)O)cc1` (stereo not shown) [Compound 26, 1-[(5′-bromo-2′-((1-carboxy-1,1-dimethylmethyl)oxy)biphenyl-4-yl)methyl]-2-butyl-4-phenyl-1H-imidazol-5(4H)-one], the melting point lay within 199 to 201 °C.

With `CCCCC1=NC2(CCCC2)C(=O)N1CCc1ccc(OC(C)(C)C(=O)O)cc1` [Compound 3, 2-butyl-1-[2-(4-((1-carboxy-1,1-dimethylmethyl)oxy)phenyl)ethyl]-4-spirocyclopentyl-1H-imidazol-5(4H)-one], the melting point was in the range of 50 to 53 °C.

With `CCCCC1=NC(CC)(CC)C(=O)N1Cc1ccc(-c2cccc(OC(C)C(=O)O)c2)cc1` (stereo not shown) [Compound 66, 2-butyl-1-[(3′-((1-carboxy-1-methylmethyl)oxy)biphenyl-4-yl)methyl]-4,4-diethyl-1H-imidazol-5(4H)one], the melting point was 186 °C.

Turning to `CCCCC1=NC2(CCCC2)C(=O)N1Cc1ccc(C(=O)c2ccccc2OC(C)(C)C(=O)O)cc1` [Compound 7, 2-butyl-1-[[4-[(2-((1-carboxyl-1,1-dimethylmethyl)oxy)phenyl)carbonyl]phenyl]methyl]-4-spirocyclopentyl-1H-imidazol-5(4H)-one], the melting point is 85 to 90 °C.

With `CCCCC1=NC(CC)(CC)C(=O)N1Cc1ccc(-c2cccc(OC(CC)C(=O)O)c2)cc1` (stereo not shown) [Compound 64, 2-butyl-1-[(3′-((1-carboxy-1-ethylmethyl)oxy)biphenyl-4-yl)methyl]-4,4-diethyl-1H-imidazol-5(4H)one], the melting point was 184 °C.

The compound `CCCCC1=NC2(CCCCC2)C(=O)N1Cc1ccc(-c2cccc(OC(C)(C)C(=O)O)c2)c(C)c1` [Compound 72] showed a melting point of 140 °C.

For `CCCCC1=NC2(CCCC2)C(=O)N1Cc1ccc(-c2ccc(CCC)c(OC(C)(C)C(=O)O)c2)cc1` [Compound 98, 2-butyl-1-[(3′-((1-carboxy-1,1-dimethylmethyl)oxy)-4′-propyl-biphenyl-4-yl)methyl]-4-spirocyclopentyl-1H-imidazol-5(4H)-one], the melting point is 74 °C.

`CCCCC1=NC2(CCCC2)C(=O)N1Cc1cccc(-c2cccc(OC(C)(C)C(=O)O)c2)c1` [Compound 74, 2-butyl-1-[(3′-((1-carboxy-1,1-dimethylmethyl)oxy)biphenyl-3-yl)methyl]-4-spirocyclopentyl-1H-imidazol-5(4H)-one] registered a melting point of 70 °C.

For `CCCCC1=NC2(CCCC2)C(=O)N1Cc1ccc(-c2cc(OC(C)(C)C(=O)O)ccc2C#N)cc1` [Compound 89, 2-butyl-1-[(3′-((1-carboxy-1.1-dimethylmethyl)oxy)-6′-cyano-biphenyl-4-yl)methyl]-4-spirocyclopentyl-1H-imidazol-5(4H)-one], the melting point was under 50 °C.

`CCCCC1=NC2(CCCC2)C(=O)N1Cc1ccc(-c2ccc(CC(C)C)c(OC(C)(C)C(=O)O)c2)cc1` [Compound 81, 2-butyl-1-[(3′-((1-carboxy-1,1-dimethylmethyl)oxy)-4′-isobutyl-biphenyl-4-yl)methyl]-4-spirocyclopentyl-1H-imidazol-5(4H)-one] gave a melting point of 78 °C.

`CCCCC1=NC2(CCCCC2)C(=O)N1Cc1ccc(-c2cccc(OC(C(=O)O)C(C)C)c2)cc1` (stereo not shown) [Compound 55, 2-butyl-1-[(3′-((1-carboxy-1-(1,1-dimethylmethyl)methyl)oxy)-biphenyl-4-yl)methyl]-4-spirocyclohexyl-1H-imidazol-5(4H)-one] gave a melting point of 105 °C.

Regarding `CCCCC1=NC2(CCCC2)C(=O)N1Cc1cccc(-c2ccccc2OC(C)(C)C(=O)O)c1` [Compound 75, 2-butyl-1-[(2′-((1-carboxy-1,1-dimethylmethyl)oxy)biphenyl-3-yl)methyl]-4-spirocyclopentyl-1H-imidazol-5(4H)-one], the melting point is 167 °C.

`CCCCC1=NC2(CCCC2)C(=O)N1Cc1cccc(-c2ccc(OC(C)(C)C(=O)O)cc2)c1` [Compound 77, 2-butyl-1-[(4′-((1-carboxy-1,1-dimethylmethyl)oxy)biphenyl-3-yl)methyl]-4-spirocyclopentyl-1H-imidazol-5(4H)-one] displayed a melting point of 170 °C.

(Values after US20100004159A1, “SUBSTITUTED IMIDAZOLONE DERIVATIVES, PREPARATIONS AND USES” (GENFIT, priority 2006, published 2010).)
